From patent US20040141944A1, “Inhibition of xenoreactive antibodies” (priority 1998, published 2004)

Key:
[1] = tested on: Purified CD19+B cells; assay: effect of TPC on T cell-independent anti-Gal B cell activation (ELISPOT); type: cell-based; details: TPC (410S) 1 mg/mL pretreatment 30 min or 50 ug/mL daily; 5 day culture with SAC, IL-2, IL-4, anti-CD40
Description: To each well of the first 10 columns of a sterile hydrazine modified polystyrene 96-well plate (Corning Costar, Cambridge, Mass.), 100 μL per well of a solution containing 3.2 mg/mL αGal(1,3)Gal β 1-4 GlcNAc, 3.1 mg/mL EDC and 2.4 mg/mL NHS were added in a darkened cold room and the reaction proceeded for four hours. After careful washing with sterile H2O, the plates were completely covered with plastic strips and stored at 4° C. until use. Plates were blocked with sterile 400 ul/well of PBS/1% HSA for 2 hours at 37° C. Peripheral blood mononuclear cells were isolated by Ficoll-Hypaque (specific gravity, 1.077 g/mL; Pharmacia Fine Chemicals, Piscatawy, N.J.) density gradients at 400 g for 30 min. at 22° C. […] Plates were incubated overnight in the dark at room temperature and single Ab-secreting, spot forming cells (ASC) were visualized, analyzed and counted under low magnification using an inverted phase microscope. Data represents total isotype specific anti-gal Ab-secreting cells/10^6 PBMNCs, calculated from serially diluted cell samples.
Purified CD19+B cells were obtained by positive selection with the use of anti-CD19+ immunomagnetic beads (Pan-B (CD19); Dynal, Lake Success, N.Y.). […] Following the 5 day culture period, cells were washed extensively, counted, viability determined and the number of ASC determined using the anti-Gal ELISPOT assay. […]

[2] = tested on: xenoreactive IgG (X IgG) and xenoreactive IgM (X IgM); assay: effect of TPC on xenoreactive antibody levels in cynomolgous monkeys; type: in vivo
Description: TPC molecule 410S was prepared as described in Example 5. 410S or PEG control was administered to cynomolgous monkeys in doses of either 50 mg or 250 mg every 3 days for 2 weeks. Blood was drawn for serum before and after each administration. During the subsequent 2 week period, blood was drawn each Monday and Friday. Serum samples were analyzed for xenoreactive IgG (X IgG) and xenoreactive IgM (X IgM).

[3] = tested on: IgM XNAs; assay: effect of TPC on xenoreactive antibody level in baboons; type: in vivo, baboon
Description: The TPC molecule 410S was synthesized as described in Example 5 above. Baboons were first immunoapheresed using α-gal-columns in order to remove circulating αGal antibodies, and to set a basis for comparison of the ability of TPC to remove αGal antibodies from the circulation.
The procedures for treating and transplanting the baboons are described in Shu S. Lin et al., Transplant Immunol. 5:212-218, 1997. Descriptions of methods for making αGal-columns are contained in U.S. Pat. Nos. 5,695,759 and 5,651,968, which are herein incorporated by reference. Briefly, each baboon subject was prepared for plasma treatment by induction of anesthesia with ketamine HCl and pentamine, and anesthesia was then maintained during all procedures under inhalation and Forane™ gas. The subject's bloodstream was asceptically connected by intravenous puncture to a plasmapheresis machine which separated the plasma from the cells and platelets. The plasma was asceptically conducted to an α-gal column; effluent from the column was pumped and remixed on-line with the cells and platelets, and reinfused to the subject. This procedure was carried out continuously for 2-3 plasma volumes. The blood flow rate of 75-100 cc/min (with a plasma flow rate of 35-50 cc/min), was well tolerated by the subject. The entire column procedure lasted 1-1.5 hours.
250 mg of TPC (410S, as described in Example 5 above) was administered as noted in FIGS. 12 and 13.

(αGal(1,3)Gal β 1-4 GlcNAc)4-PEG [Example 410S]
effect on the number of detectable ASCs [1]: no effect
effect on total cell yield and viability [1]: no effect
effect on anti-Gal IgG levels ([2]; 50 mg and 250 mg doses, compared with the IgM effect): the effect was not as dramatic
anti-Gal IgM level, % of the initial level ([2]; 50 mg animals, 15 days post-treatment): ~40%
anti-Gal IgM level, % of the initial level ([2]; 50 mg dose every 3 days, after 6 TPC treatments): approximately 15%
anti-Gal IgM level, % of the predosing level ([2]; 250 mg animals, 15 days post-treatment): 15%
anti-Gal IgM level, % of the initial level ([2]; 250 mg dose every 3 days, after 6 TPC treatments): approximately 5%
IgM XNA, % pretreatment levels ([3]; Baboon 376-96, after next administration of 250 mg TPC): about 5%
circulating IgM XNA levels ([3]; Baboon 376-96, after second immunoapheresis plus 250 mg TPC): undetectable
circulating levels of IgM XNA ([3]; Baboon 376-96, six subsequent administrations of 250 mg TPC every 3 or 4 days): lower each time
IgM XNA, % pretreatment levels ([3]; Baboon 376-96, three days after first TPC (rebound)): 35%
levels of IgM XNAs ([3]; Baboon 377-96, infusion of 250 mg TPC after third immunoapheresis): undetectable
IgM XNA levels, % pretreatment levels ([3]; Baboon 377-96, three days after the 250 mg TPC infusion (rebound)): about 15%
